Measured values: US20140162308A1, “DEVICE AND METHOD FOR I[…] AND COUNTING MICROBES AND DETERMINING ANTIMICROBIAL SENSITIVITY” (Texas State University, priority 2011, published 2014)

System: E. Coli B
Experiment: Antimicrobial sensitivity test: resistance signature of the microbial sample after adding the antibiotic
Type: cell-based
Conditions: 0.9 mL of 10^3 CFU/mL E. Coli B in LB Broth + 0.1 mL antibiotic, room temperature; slope of control samples remains negative; FIGS. 7A-7D
Protocol: FIGS. 7A-7D depict signatures of microbial sample of 0.9 mL of a concentration of 10^3 CFU/mL of two-hour E. Coli B treated with 0.1 mL of antibiotics or antimicrobials and control samples in the absence thereof. What is common to all FIGS. 7A-7D is the slope for signatures with antibiotics or antimicrobials become positive, i.e., the resistance component of total impedance of the microbial sample increases, upon addition of the antibiotic or antimicrobial. The slope of the control samples remains negative.
In further detail, a difference in the degree of the slope change for the signature can be observed. […]
An overnight bacterial culture of E. coli B with a concentration of around 10^9 cells which had attained room temperature were diluted using LB Broth which had also attained room temperature to a final concentration of 10^3 cells. 0.9 ml of this solution was then placed into one sensor well which was connected to lead #1 of a reader unit. An additional 0.9 ml of the bacteria was placed into a second sensor well which was connected to lead#2 of a reader unit. […]
An overnight bacterial culture of E. coli B with a concentration of around 10^9 cells that had attained room temperature were diluted to a final concentration of 10^3 cells. 0.9 ml of this solution was then placed into a first sensor well which was connected to lead #1 of a reader unit. […]

## Cc1cc(NS(=O)(=O)c2ccc(N)cc2)no1 [sulfamethoxazole]
  slope of the signature (resistance component of total impedance of the microbial sample) upon addition of the antibiotic or antimicrobial: steeper than for azithromycin
